Reference: US7807369B2, “Methods and means for the treatment of HPV induced intraepithelial neoplasia” (Leiden University Medical Center, priority 2005, dated 2010)

Tests used:
VIN = details: topical treatment of VIN; estimate from refs 17-21; cited from earlier work
[1] = system: HPV16 VLP-specific IgG and IgA; experiment: HPV16 VLP ELISA of serum over time in imiquimod-treated patients; format: in vivo, human; details: serum at week 0, 8 and 16; 17 VIN3 patients
Experimental: IgG and IgA reactivity to HPV16 VLPs over time in 17 VIN3 patients treated with imiquimod. At least two serum specimens were tested in every patient. Serological responses are shown at week 0 (before imiquimod treatment), week 8 (during imiquimod treatment) and at week 16 (after imiquimod treatment). The OD values are depicted as median ±SD of positive responses. The OD values were calculated by subtraction of the background response value and the mean OD value of the young children's sera.
(§1) Seventeen of these 29 subjects (age 29-60 years, median 43 years) were experimentally treated with a 5% imiquimod cream. The patients were asked to apply the cream to the affected areas on the vulva twice weekly overnight for a maximum period of 16 weeks. In order to analyze the effect of imiquimod treatment on the HPV16-specific immune response, we collected serial blood and serum samples before the start of imiquimod treatment (T=0), after 8 weeks of treatment (T=8), and at the end of treatment (T=16). Vulvar lesions were assessed by direct measurement and photographic records at entry, and after 8 and 16 weeks of treatment. Clinical responses were defined as a complete response (CR), a partial response type1 (PR1), as defined by a reduction in lesion diameter from 76-99%, a partial response type2 (PR2), as defined by a reduction in lesion diameter from 26-75%, or no clinical response. […]

[2] = system: HPV16-specific IFNγ-producing T-cells; experiment: HPV16-specific T-cell reactivity by IFNγ ELISPOT before, during and after imiquimod treatment; format: in vivo, human; details: PBMC at week 0, 8 and 16
From the text: as §1, with “treatment.” for “treatment. Clinical responses were defined as a complete response (CR), a partial response type1 (PR1), as defined by a reduction in lesion diameter from 76-99%, a partial response type2 (PR2), as defined by a reduction in lesion diameter from 26-75%, or no clinical response.”
The number of IFNγ producing HPV-specific T-cells, present in the peripheral blood of the 17 patients treated with imiquimod, was quantified using ELISPOT that was performed as described previously (29; 30). […] Spots were counted with a fully automated computer-assisted-video-imaging analysis system (Bio Sys). Specific spots were calculated by subtracting the mean number of spots+2×SD of the medium control from the mean number of spots in experimental wells provided that the mean number of spots of the medium control wells were either <10 or >10 with a standard deviation <20% of the mean. […]

high-grade VIN = experiment: Clinical response of high-grade VIN lesions to 5% imiquimod cream; format: in vivo, human
From the text: Twenty-nine women with high-grade VIN (age range, 24-73 years; median age, 47 years) were recruited from the departments of gynecology of the Academic Medical Center, and Leiden and Erasmus University Medical Center, The Netherlands. On the average, these patients had been diagnosed with VIN3 5,4 years before enrollment in the study (range, 6 months-15 years). Eighteen women had undergone previous treatments for VIN3 (surgical excision, laser therapy or imiquimod treatment (#21, 24, 27)) before study entry.
Seventeen of these 29 subjects (age 29-60 years, median 43 years) were experimentally treated with a 5% imiquimod cream. The patients were asked to apply the cream to the affected areas on the vulva twice weekly overnight for a maximum period of 16 weeks. In order to analyze the effect of imiquimod treatment on the HPV16-specific immune response, we collected serial blood and serum samples before the start of imiquimod treatment (T=0), after 8 weeks of treatment (T=8), and at the end of treatment (T=16). Vulvar lesions were assessed by direct measurement and photographic records at entry, and after 8 and 16 weeks of treatment. Clinical responses were defined as a complete response (CR), a partial response type1 (PR1), as defined by a reduction in lesion diameter from 76-99%, a partial response type2 (PR2), as defined by a reduction in lesion diameter from 26-75%, or no clinical response.
Statistical analysis of the HPV16-specific proliferative responses associated with cytokine production was performed using Fisher's exact test. Fisher's Exact test (2-tailed) was used to analyze HPV-specific immunity to clinical response upon treatment with imiquimod. Statistical analyzes were performed using Graphpad Instat Software (version 3.0).

[3] = of 17 women treated, 5% cream, max 16 weeks

CC(C)Cn1cnc2c(N)nc3ccccc3c21 [imiquimod, 1-(2-methylpropyl)-1H-imidazo[4,5-c]quinolin-4-amine]
clinical success rates (VIN): 30-87% | change of HPV16 VLP-specific IgG and IgA response [1]: did not overly change | effect on numbers of HPV16-specific T-cells [2]: In none of the patients a clear-cut increase of HPV16-specific T-cells was detected | women with overt clinical response (CR or PR1, 76-100% reduction in lesion size) (high-grade VIN; 13 of 17 women with high-grade VIN, 5% cream twice weekly, max 16 weeks): 76% | likelihood of CR or PR1 in patients without an HPV-specific immune response (high-grade VIN; HPV16+ patients (n=15), versus those with a response, p=0.03, 2-sided Fisher's exact test): less likely to show such a clinical improvement | patients with no reduction in size of the affected area of vulvar disease (high-grade VIN; [3]): Three | patients with only minimal improvement upon treatment (high-grade VIN; [3]): one | patients with complete or near complete clinical response (CR or PR1) (high-grade VIN; the 8 HPV16+ patients with an HPV-specific Th1 immune response (of n=15 HPV16+)): 8 patients
